According to patent publication US20210037856A1, “Ruminant Feed Composition Comprising A Muramidase” (Novozymes A/S, priority 2018, published 2021):
Counter-ions that a name gives are not always drawn.

Tests used:
rumen fluid [1] = experiment: in vitro ruminal fermentation, 13 muramidases, 12 h (Example 3); set-up: species or system cow; conditions: PC at dosage 0.01 mg/40 mL
Description: (§1) The trial was performed by Alimetrics (Alimetrics Ltd, Koskelontie 19B, FIN-02920 Espoo, Finland) using 120 mL serum bottles as fermentation vessels. The fermentation preparation and procedure is presented in Kettunen et al., (Kettunen H., J. Vuorenmaa, D. Gaffney and J. Apajalahti (2016): Yeast hydrolysate product enhances ruminal fermentation in vitro. J. App. Anim. Nutr., Vol. 4; e1; page 1 of 7). In short, the method is as follows: All bottles were initially filled with 1 g of feed DM composed from corn silage, barley meal, soybean meal, at the amounts of 0.5, 0.4, and 0.1 g DM, respectively. Subsequently, the bottles were flushed with CO2 passed through a hot copper catalyst for O2 scavenging and sealed with thick butyl rubber stopper. Anaerobic, reduced and temperature adjusted (+38° C.) artificial saliva buffer solution (Modified from Agriculture Handbook No. 379, (USDA, Washington, D.C., 1975), volume of 37.65 ml), freshly strained rumen fluid (5% inoculum; volume of 2 ml), and test compounds (volume of 0.35 ml) was introduced into the fermentation vessels under the oxygen-free CO2 flow. Following rumen fluid collection from a ruminal cannulated cow. Rumen fluid was pumped directly from the rumen into a preheated thermos and immediately closed, and transported to Alimetrics laboratory. The rumen fluid was used for inoculation within 2 hours of harvest. To ensure that both liquid and particle associated ruminal microbes were present in the inoculum both fractions were obtained. Liquid and solid fractions were strained through a metal mesh (grid size 3×3 mm) under anaerobic conditions prior to buffer dilution.
(§2) Following inoculation with rumen fluid, buffer and test solution the vessels were sealed with the butyl rubber septum's. All fermentation vessels were inoculated in random order to prevent the possible block effects. Inoculation time for each fermentation vessel was registered and was taken into account op on each sampling to ensure that duration of the fermentation was the same for each sample. The fermentation was continued for 12 h in a gyratory shaker at +38° C. Fermentation gas produced was measured and relived by collection of the fermentation gas in syringes at time 3, 6, 9, and 12 h. Feed residues were measured after 12 h fermentation.
(§3) The trial design was a dosage response, complete randomized design with 28 treatments using 150 fermentation vessels according to table 3. The 13 muramidase solutions were diluted to the concentration needed in enzyme buffer (BSA, Tween 20, acetate-buffer, Calcium, NaOH, adjusted to pH 6). Negative control was supplemented with the same buffer solution that was used for diluting the enzymes to reach the same liquid volume as the supplemented fermentation vessels. The ionophore Monensin (Monensin sodium salt, 90-95% TLC (Sigma Aldrich; Product code: M5273-1G)) was chosen as a positive control because it is a ruminants feed additive that affects volatile fatty acids (VFA) production.
(§4) Liquid samples obtained at 12 h were analyzed for the concentration of VFA (acetate, propionate, butyrate, and valerate) by GC-FID using a glass column packed with 80/120 carbopack B-DA/4% Carbowax stationary and helium as a carrier gas (Kettunen H., J. Vuorenmaa, T. Rinttilä, H. Grönberg, E. Valkonen and J. Apajalahti (2015): Natural resin acid-enriched composition as a modulator of intestinal microbiota and performance enhancer in broiler chicken. J. App. Anim. Nutr., Vol. 3; e2; page 1 of 9).
(§5) Digestibility of dry matter was quantified by determination of dry matter in the original feed matrix and in all fermentation vessels after 12 h of fermentation. Feed residues from the fermentation vessels were obtained by filtration tared sintered glass filters, washed with water and dried at 105° C. for 12 hours. Finally, the glass filters are weighed for the residual feed dry matter.
(§6) Dry matter digestibility (DMd) was calculated at the ratio between feed residues after end fermentation and the dry matter fed. […]

rumen fluid [2] = experiment: in vitro ruminal fermentation, 22 muramidases, 12 h (Example 4); set-up: species or system cow; DMd: unit not given here; conditions: PC (Monensin) 0.01 or 0.10 mg/40 ml, not stated which
Description: as §1, with “was collected” for “collection”
as §2, with “solution,” for “solution”
as §3, with “27” for “28”, “145” for “150”, “5. […]” for “3. The 13 muramidase solutions were diluted to the concentration needed in enzyme buffer (BSA, Tween 20, acetate-buffer, Calcium, NaOH, adjusted to pH 6).”
as §4, with “Samples Obtained” for “samples obtained”, “Analyzed” for “analyzed”, “Concentration” for “concentration”, “(Acetate, Propionate,” for “(acetate, propionate,”
as §5, §6

Staphylococcus aureus = conditions: does not cleave N,6-O-diacetylmuramic acid in cell walls; Masschalck et al. 2002; cited from earlier work
[3] = dry matter digestibility after 12 h
[4] = summed carbon in VFA after 12 h

Compound	Acetate (rumen fluid [1]; VFA production after 12 h)	Butyrate (rumen fluid [1]; VFA production after 12 h)	Propionate (rumen fluid [1]; VFA production after 12 h)	DMd (rumen fluid [1]; [3])	Total VFA (rumen fluid [1]; sum of VFA after 12 h)	Carbon in VFA (rumen fluid [1]; [4])	Acetate (rumen fluid [2]; VFA production after 12 h)	Butyrate (rumen fluid [2]; VFA production after 12 h)	Propionate (rumen fluid [2]; VFA production after 12 h)	DMd (rumen fluid [2]; [3])	Total VFA (rumen fluid [2]; sum of VFA after 12 h)	Carbon in VFA (rumen fluid [2]; [4])	lysis of Staphylococcus aureus (Staphylococcus aureus)
CC[C@@]1([C@@H]2O[C@@H]([C@H]3O[C@@](O)(CO)[C@H](C)C[C@@H]3C)C[C@@H]2C)CC[C@H]([C@]2(C)CC[C@]3(C[C@H](O)[C@@H](C)[C@@H]([C@@H](C)[C@@H](OC)[C@H](C)C(=O)O)O3)O2)O1 [PC, Monensin sodium salt, reference compound]	47.5 mmol/L	3.86 mmol/L	46.4 mmol/L	0.55	98 mmol/L	251 mmol/L	44.2 mmol/L	3.7 mmol/L	42.8 mmol/L	0.51	91 mmol/L	234 mmol/L	–
Muramidase extracted from hen egg white: GH22 muramidase from hen egg white, primary product available on the commercial market	–	–	–	–	–	–	–	–	–	–	–	–	unable to lyse
